Test results from US7250153B2, “Contrast media formulations having improved biological tolerance” (Biophysica Research, Inc., priority 2002, dated 2007).
Values joined by “and” are separate entries in the source; they are usually repeats but may differ in a detail not shown here. Identical values can stand only once. Like-named read-outs stand apart in the source and are kept apart here.

Experiments:
mice [1] = settings: Control, formulated in TRIS/HCl; intravenous; published (Heglund et al. 1995); cited from earlier work
rats [2] = settings: Control, formulated in TRIS/HCl; intravenous; published (Heglund et al. 1995); cited from earlier work
[3] = Stability of iosimenol to autoclave sterilization (20 min at 121° C.), free iodide measured; type: physicochemical; settings: for I− after / I− before: single samples
Experimental: Samples of Iosimenol were formulated in 20 mM TRIS+5 mM citric acid, TRIS/HCl and 10 mM TRIS+3.3 mM citrate. Samples were then autoclaved for 20 minutes at 121° C. and the amounts of free iodine measured.
(§1) A 5 micron C18 column 25 cm×4.6 mm ID was eluted with 30% acetonitrile/70% 0.05 M KH2PO4 containing 7 ml/L of 40% tetrabutyl ammonium hydroxide. 20 μl of a 10 μg I^−/ml was the standard. 20 μl of a test sample of iosimenol was injected and UV absorbance measured at 230 nm, 0.2 AU. Under these conditions, the iodide standard eluted after 5.6 minutes and gave an area of “X” counts.
(§2) Iodide was alternately determined by extraction and spectrophotometry according to USP24/NF19, p 911 (1995). In general, the solution containing iodide is oxidized in the presence of acid, with sodium nitrite and then extracted into toluene which is then read at a wavelength of 500 nm. Comparison of standard samples with experimental samples yields the amount of iodide present in the sample.

[4] = Separate study: stability of iosimenol after autoclaving in TRIS/HCl and TRIS/citric acid (pH, iodide release); type: physicochemical; settings: 121° C. for 20 min; for pH after autoclaving / ΔI−: pre-autoclaving pH 7.00, Ca/Na EDTA 0.1 mg/ml, 340-355 mg I/ml
Experimental: as §1, §2

mice [5] = assay: Intravenous LD50 (systemic tolerance) in mice; type: in vivo
Experimental: (§3) To examine the effects of the TRIS/citrate buffer system of this invention on the biological tolerance, using standard methods, we assessed intravenous murine and rat LD50 of iosimenol formulated either in TRIS/HCl or in the novel TRIS/citric acid buffers, and compared the results with those published for the clinically employed nonionic dimer iodixanol (formulated in TRIS/HCl buffer; Heglund IF et al., Acta Radiol. Suppl. 1995:399:69-82). Murine and rat LD50 were obtained by 1 ml/min injection of 340 mg I/ml; data at 7 days and based on the 50% survival of the animals was expressed as g I/kg bw (Table 3).

rats [6] = assay: Intravenous LD50 (systemic tolerance) in rats; type: in vivo
Experimental: as §3

[7] = Buffer 10 mM TRIS + 3 mM citric acid

CC(=O)N(CC(O)CN(C(C)=O)c1c(I)c(C(=O)NCC(O)CO)c(I)c(C(=O)NCC(O)CO)c1I)c1c(I)c(C(=O)NCC(O)CO)c(I)c(C(=O)NCC(O)CO)c1I (stereo not shown) [Iodixanol]
LD50 mice (mice [1]): 21.0 g I/kg bw
LD50 rats (rats [2]): 21.0 g I/kg bw

NC(=O)c1c(I)c(C(=O)NCC(O)CO)c(I)c(N(CC(O)CO)C(=O)CC(=O)N(CC(O)CO)c2c(I)c(C(N)=O)c(I)c(C(=O)NCC(O)CO)c2I)c1I (stereo not shown) [Iosimenol, N,N′-Bis[3-carbamoyl-5-(2,3-dihydroxypropyl-carbamoyl)-2,4,6-triiodophenyl]-N,N′-bis(2,3-dihydroxypropyl)-malonamide]
Stability on autoclaving (in words) ([3]; 20 mM TRIS and 5 mM citric acid, pH about 6.5 to 7.5, compared with TRIS/HCl or TRIS/citrate in molar equivalent ratio): always somewhat less or equally stable
I− after, Avg. ([3]; Buffer 10 mM TRIS + 3.3 mM citrate, after 20 min at 121° C., average): 21.84 µg/mL
I− after ([3]; Buffer 10 mM TRIS + 3.3 mM citrate, after 20 min at 121° C.): 22.34 µg/mL and 21.51 µg/mL and 21.66 µg/mL
ΔI− ([3]; Buffer 10 mM TRIS + 3.3 mM citrate, after minus before 20 min at 121° C.): +17.84 μg/ml
I− before, Avg. ([3]; Buffer 10 mM TRIS + 3.3 mM citrate, before autoclaving, average): 4.00 µg/mL
I− before ([3]; Buffer 10 mM TRIS + 3.3 mM citrate, before autoclaving): 3.99 µg/mL and 4.17 µg/mL and 3.83 µg/mL
I− after, Avg. ([3]; Buffer 20 mM TRIS + 5 mM citric acid, after 20 min at 121° C., average): 16.90 µg/mL
I− after ([3]; Buffer 20 mM TRIS + 5 mM citric acid, after 20 min at 121° C.): 15.80 µg/mL and 15.96 µg/mL and 16.11 µg/mL and 16.53 µg/mL and 18.87 µg/mL and 18.13 µg/mL
ΔI− ([3]; Buffer 20 mM TRIS + 5 mM citric acid, after minus before 20 min at 121° C.): +12.90 μg/ml
I− before, Avg. ([3]; Buffer 20 mM TRIS + 5 mM citric acid, before autoclaving, average): 4.00 µg/mL
I− before ([3]; Buffer 20 mM TRIS + 5 mM citric acid, before autoclaving): 4.08 µg/mL and 3.94 µg/mL and 3.42 µg/mL and 3.59 µg/mL and 4.44 µg/mL and 4.52 µg/mL
I− after, average (row not labelled) ([3]; Buffer 20 mM TRIS/HCl, after 20 min at 121° C., average): 14.22 µg/mL
I− after ([3]; Buffer 20 mM TRIS/HCl, after 20 min at 121° C.): 14.07 µg/mL and 14.19 µg/mL and 14.39 µg/mL
ΔI− (row not labelled) ([3]; Buffer 20 mM TRIS/HCl, after minus before 20 min at 121° C.): +9.89 μg/ml
I− before, average (row not labelled) ([3]; Buffer 20 mM TRIS/HCl, before autoclaving, average): 4.33 µg/mL
I− before ([3]; Buffer 20 mM TRIS/HCl, before autoclaving): 4.29 µg/mL and 4.44 µg/mL and 4.27 µg/mL
Stability under autoclaving (in words) ([3]; carboxylic acid neutralized by an amine, compared with TRIS/carboxylic acid where TRIS prevailed or TRIS/HCl): less stable
pH after autoclaving [4, 7]: 6.90
ΔI− [4, 7]: +24.2 μg/ml
pH after autoclaving ([4]; Buffer 10 mM TRIS/HCl): 6.49
ΔI− ([4]; Buffer 10 mM TRIS/HCl): +8.7 μg/ml
pH after autoclaving ([4]; Buffer 20 mM TRIS/HCl): 7.00
ΔI− ([4]; Buffer 20 mM TRIS/HCl): +7 μg/ml
Stability after autoclaving (in words) ([4]; TRIS/citric acid in a non-equivalent ratio compared with TRIS/HCl buffer): lower stability
LD50 mice (mice [5]; mouse, in vivo, iv): 22.0 g I/kg bw
LD50 in 20 mM TRIS with 5 mM citrate compared with 20 mM TRIS/HCl (in words) (mice [5]; murine, intravenous): statistically significantly higher LD50
LD50 rats (rats [6]; 20 mM TRIS + 5 mM citric acid, intravenous, 1 ml/min injection of 340 mg I/ml, data at 7 days): 23.5 g I/kg bw
LD50 rats (rats [6]; rat, in vivo, iv): 20.0 g I/kg bw
LD50 in 20 mM TRIS with 5 mM citrate compared with 20 mM TRIS/HCl (in words) (rats [6]; rat, intravenous): statistically significantly higher LD50
